Laboratory results published in PMC9694544, “Conteltinib (CT-707) in patients with advanced ALK-positive non-small cell lung cancer: a multicenter, open-label, first-in-human phase 1 study” (BMC Medicine, 2022).

Tested on: patients with ALK-positive NSCLC
Experiment: Phase 1 safety assessment (TRAEs by CTCAE 4.03, DLT, MTD, RP2D)
Type: in vivo, human
Experimental: In the dose-escalation phase, the dose was escalated sequentially from a low to a high level with a 3 + 3 dose-escalation scheme based on the modified Fibonacci method. The starting dose for conteltinib was 50 mg orally quaque die (QD). Dose escalation proceeded to the next six cohorts of 100 mg, 200 mg, 300 mg, 450 mg, 600 mg, and 800 mg QD. For each dose, there was a PK lead-in phase where a single dose was given 7 days before cycle 1 day 1. Then, each dose was taken continuously in a 28-day cycle. The first cycle was for dose-limiting toxicity (DLT) investigation. When one of three patients experienced a DLT in a dose cohort, three additional patients were enrolled in the same dose cohort to assess the dose level in a total of six patients. All patients received conteltinib until disease progression, unacceptable toxicity, or withdrawal of consent. Patients received follow-up safety assessments for 30 days (±7 days) after the last conteltinib dose.
In the dose-expansion phase, each dose was taken continuously in a 28-day cycle. At the end of each cycle, a safety evaluation was conducted. If patients met the criteria to enter the next cycle, treatment with conteltinib was continued for subsequent cycles. All patients received conteltinib until disease progression, unacceptable toxicity, or withdrawal of consent. Patients received follow-up safety assessments for 30 days (±7 days) after the last dose of conteltinib.
The safety of conteltinib was assessed in safety set (SS) which was based on the National Cancer Institute Common Terminology Criteria for Adverse Events (CTCAE) version 4.03, laboratory tests, vital signs, ECG, and clinical observations. […] Adverse events (AEs) were judged to be treatment-related or not by investigators.
DLTs were AEs occurring in the first cycle of treatment (28 days) that were attributed to conteltinib, and the criteria were grade 4 neutropenia lasting ≥ 7 days, febrile neutropenia, grade 3 thrombocytopenia, grade 3 non-hematologic toxicity, and any conteltinib-related toxicity resulting in treatment delay > 2 weeks or discontinuation of conteltinib treatment at the assigned dose level. Besides, grade 3 nausea, vomiting, or diarrhea for ≥ 3 days or grade 4 nausea, vomiting, or diarrhea of any duration was considered as a DLT. The MTD was defined as the dose of conteltinib that would be closest to but not higher than a 33% probability of a DLT.

COc1cc(N2CCC(N3CCN(C)CC3)CC2)ccc1Nc1nc2c(c(Nc3ccccc3S(=O)(=O)NC(C)C)n1)CCN2 [Conteltinib]
4 (33.3) n (%): TRAE Hypoalbuminemia (300 mg BID (n=12), Grade 1–2) | TRAE Nausea (300 mg BID (n=12), Grade 1–2)
1 (8.3) n (%): TRAE Conjugated bilirubin elevated (300 mg BID (n=12), Grade 1–2) | TRAE Hypertriglyceridemia (300 mg BID (n=12), Grade 1–2) | Patients with any TRAE (300 mg BID (n=12), Grade ≥ 3) | TRAE Conjugated bilirubin elevated (300 mg BID (n=12), Grade ≥ 3) | TRAE γ-GGT elevated (300 mg BID (n=12), Grade ≥ 3)
0 (0.0) n (%): TRAE Abdominal pain (200 mg QD (n=3), Grade ≥ 3) | TRAE Abdominal pain upper (200 mg QD (n=3), Grade ≥ 3) | TRAE Appetite decreased (200 mg QD (n=3), Grade ≥ 3) | TRAE Conjugated bilirubin elevated (200 mg QD (n=3), Grade ≥ 3) | TRAE Diarrhea (200 mg QD (n=3), Grade ≥ 3) | TRAE Hypercholesterolemia (200 mg QD (n=3), Grade ≥ 3) | TRAE Hyperglycemia (200 mg QD (n=3), Grade ≥ 3) | TRAE Hypertriglyceridemia (200 mg QD (n=3), Grade ≥ 3) | TRAE Hyperuricemia (200 mg QD (n=3), Grade ≥ 3) | TRAE Hypoalbuminemia (200 mg QD (n=3), Grade ≥ 3) | TRAE Nausea (200 mg QD (n=3), Grade ≥ 3) | TRAE Proteinuria (200 mg QD (n=3), Grade ≥ 3) | TRAE Serum creatinine elevated (200 mg QD (n=3), Grade ≥ 3) | TRAE Vomiting (200 mg QD (n=3), Grade ≥ 3) | TRAE Weight loss (200 mg QD (n=3), Grade ≥ 3) | TRAE γ-GGT elevated (200 mg QD (n=3), Grade ≥ 3) | TRAE Hypercholesterolemia (300 mg BID (n=12), Grade 1–2) | TRAE Hyperglycemia (300 mg BID (n=12), Grade 1–2) | TRAE ALT elevated (300 mg BID (n=12), Grade ≥ 3) | TRAE AST elevated (300 mg BID (n=12), Grade ≥ 3) | TRAE Abdominal pain (300 mg BID (n=12), Grade ≥ 3) | TRAE Abdominal pain upper (300 mg BID (n=12), Grade ≥ 3) | TRAE Appetite decreased (300 mg BID (n=12), Grade ≥ 3) | TRAE Diarrhea (300 mg BID (n=12), Grade ≥ 3) | TRAE Hypercholesterolemia (300 mg BID (n=12), Grade ≥ 3) | TRAE Hyperglycemia (300 mg BID (n=12), Grade ≥ 3) | TRAE Hypertriglyceridemia (300 mg BID (n=12), Grade ≥ 3) | TRAE Hyperuricemia (300 mg BID (n=12), Grade ≥ 3) | TRAE Hypoalbuminemia (300 mg BID (n=12), Grade ≥ 3) | TRAE Nausea (300 mg BID (n=12), Grade ≥ 3) | TRAE Proteinuria (300 mg BID (n=12), Grade ≥ 3) | TRAE Serum creatinine elevated (300 mg BID (n=12), Grade ≥ 3) | TRAE Vomiting (300 mg BID (n=12), Grade ≥ 3) | TRAE Weight loss (300 mg BID (n=12), Grade ≥ 3) | TRAE Abdominal pain (300 mg QD (n=3), Grade 1–2) | TRAE Abdominal pain upper (300 mg QD (n=3), Grade 1–2) | TRAE Appetite decreased (300 mg QD (n=3), Grade 1–2) | TRAE Conjugated bilirubin elevated (300 mg QD (n=3), Grade 1–2) | TRAE Hyperuricemia (300 mg QD (n=3), Grade 1–2) | TRAE Proteinuria (300 mg QD (n=3), Grade 1–2) | TRAE γ-GGT elevated (300 mg QD (n=3), Grade 1–2) | Patients with any TRAE (300 mg QD (n=3), Grade ≥ 3) | TRAE ALT elevated (300 mg QD (n=3), Grade ≥ 3) | TRAE AST elevated (300 mg QD (n=3), Grade ≥ 3) | TRAE Abdominal pain (300 mg QD (n=3), Grade ≥ 3) | TRAE Abdominal pain upper (300 mg QD (n=3), Grade ≥ 3) | TRAE Appetite decreased (300 mg QD (n=3), Grade ≥ 3) | TRAE Conjugated bilirubin elevated (300 mg QD (n=3), Grade ≥ 3) | TRAE Diarrhea (300 mg QD (n=3), Grade ≥ 3) | TRAE Hypercholesterolemia (300 mg QD (n=3), Grade ≥ 3) | TRAE Hyperglycemia (300 mg QD (n=3), Grade ≥ 3) | TRAE Hypertriglyceridemia (300 mg QD (n=3), Grade ≥ 3) | TRAE Hyperuricemia (300 mg QD (n=3), Grade ≥ 3) | TRAE Hypoalbuminemia (300 mg QD (n=3), Grade ≥ 3) | TRAE Nausea (300 mg QD (n=3), Grade ≥ 3) | TRAE Proteinuria (300 mg QD (n=3), Grade ≥ 3) | TRAE Serum creatinine elevated (300 mg QD (n=3), Grade ≥ 3) | TRAE Vomiting (300 mg QD (n=3), Grade ≥ 3) | TRAE Weight loss (300 mg QD (n=3), Grade ≥ 3) | TRAE γ-GGT elevated (300 mg QD (n=3), Grade ≥ 3)
3 (25.0) n (%): TRAE ALT elevated (300 mg BID (n=12), Grade 1–2) | TRAE AST elevated (300 mg BID (n=12), Grade 1–2) | TRAE Abdominal pain upper (300 mg BID (n=12), Grade 1–2) | TRAE Proteinuria (300 mg BID (n=12), Grade 1–2) | TRAE γ-GGT elevated (300 mg BID (n=12), Grade 1–2)
2 (14.3) n (%): TRAE Appetite decreased (450 mg QD (n=14), Grade 1–2) | TRAE Conjugated bilirubin elevated (450 mg QD (n=14), Grade 1–2)
10 (83.3) n (%): Patients with any TRAE (300 mg BID (n=12), Grade 1–2)
5 (41.7) n (%): TRAE Serum creatinine elevated (300 mg BID (n=12), Grade 1–2)
5 (35.7) n (%): TRAE Abdominal pain (450 mg QD (n=14), Grade 1–2) | TRAE Abdominal pain upper (450 mg QD (n=14), Grade 1–2)
10 (71.4) n (%): TRAE ALT elevated (450 mg QD (n=14), Grade 1–2)
14 (100) n (%): Patients with any TRAE (450 mg QD (n=14), Grade 1–2)
9 (64.3) n (%): TRAE AST elevated (450 mg QD (n=14), Grade 1–2)
3 (100) n (%): Patients with any TRAE (300 mg QD (n=3), Grade 1–2) | TRAE Diarrhea (300 mg QD (n=3), Grade 1–2) | TRAE Weight loss (300 mg QD (n=3), Grade 1–2)
1 (33.3) n (%): TRAE AST elevated (300 mg QD (n=3), Grade 1–2) | TRAE Hypercholesterolemia (300 mg QD (n=3), Grade 1–2) | TRAE Hyperglycemia (300 mg QD (n=3), Grade 1–2) | TRAE Hypertriglyceridemia (300 mg QD (n=3), Grade 1–2) | TRAE Hypoalbuminemia (300 mg QD (n=3), Grade 1–2) | TRAE Nausea (300 mg QD (n=3), Grade 1–2) | TRAE Serum creatinine elevated (300 mg QD (n=3), Grade 1–2) | TRAE Vomiting (300 mg QD (n=3), Grade 1–2)
2 (16.7) n (%): TRAE Abdominal pain (300 mg BID (n=12), Grade 1–2) | TRAE Appetite decreased (300 mg BID (n=12), Grade 1–2) | TRAE Hyperuricemia (300 mg BID (n=12), Grade 1–2) | TRAE Vomiting (300 mg BID (n=12), Grade 1–2) | TRAE Weight loss (300 mg BID (n=12), Grade 1–2)
8 (66.7) n (%): TRAE Diarrhea (300 mg BID (n=12), Grade 1–2)
13 (92.9) n (%): TRAE Diarrhea (450 mg QD (n=14), Grade 1–2)
